Data set [1] deals with E. coli strain UTI89 in the bladder of C3H/HeN mice. Description: In vivo inhibition in the murine cystitis model (instillation with UTI89). As for the experimental part: In vivo inhibition was evaluated by instilling 1-4 together with the UTI89 strain via a catheter in the bladder of C3H/HeN mice. […] A group of ten animals was used for each concentration of antagonists. […] The animals were sacrificed at a 6 h post infection time.
A murine model of urinary tract infection was used to test the ability of the compounds to inhibit the colonization of UTI89 in the bladder [Hung C. S.; Dodson, K. W., Hultgren S. J. Nat. Protoc. 2009, 4, 1230-1243 and Wellens A.; Garofalo C.; Nguyen H.; Van Gerven N.; Slättegård R.; Hernalsteens, J.-P.; Wyns, L.; Oscarson, S.; De Greve H.; Hultgren S. J.; Bouckaert, J. PLoS ONE 2008, 3, e2040]. The solution with high concentration of compounds was added to the resuspension of UTI89 before given to the mice. The eight-week old Female C3H/HeN mice (Harlan, Horst, The Netherlands) were anesthetized and infected via transurethral catheterization of 10^7 CFU UTI89 in solution in PBS, or in PBS with the compound in the mentioned concentration. The mice were sacrificed at 24 hours post infection and the bladders were harvested, homogenized and resuspended in PBS. The serial dilutions were spot on LB medium agar plates. The bacterial load was determined by counting the CFU recovered from the bladder. The animal experiments were approved by the Ethical Committer for Animal Experiments of Vrije Universiteit Brussel and complied with all relevant national legislation and institutional policies. The Mann-Whitney test was applied for the comparison of the data obtained from the untreated group and inhibition group in GraphPad Prism version 5.1 and two tailed P value were shown (GraphPad software).
A limited number of papers described the in vivo efficiency of anti-adhesive mannosides to treat UTIs.

The target of data set [2] is T1, monovalent lectin domain of FimH (Escherichia coli, UniProt P08191).
T1 construct: with the monovalent lectin domain of FimH were measured using isothermal calorimetry (ITC)
T1 sequence (P08191 22-179): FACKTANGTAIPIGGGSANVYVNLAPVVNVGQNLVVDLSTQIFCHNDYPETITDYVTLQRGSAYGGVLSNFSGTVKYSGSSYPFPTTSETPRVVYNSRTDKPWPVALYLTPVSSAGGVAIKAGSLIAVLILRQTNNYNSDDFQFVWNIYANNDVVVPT
The data set is classed as binding. The following applies: for Kd / Molar ratio n meas / ΔG° / ΔH° / ΔS°: direct titration; for Kd: read-out: Kd.

The subject of another data set is bladder cell line 5637. Nature of the data set: Anti-adhesives for bacterial bladder cell binding. The data set is classed as cell-based. The following applies: ten-fold dilution series. As for the experimental part: The anti-adhesive capacities of the HM-derivatized cyclodextrins 1-4 were tested in vitro on the bladder cell line 5637, in a procedure analogous as previously described (Wellens, A. et al., PLoS ONE 3: e2040 (2008)). The CD conjugates 1-4 were diluted in a ten-fold series. The minimum inhibitory concentrations (MIC) indicate the concentrations of sugars at which we see some inhibition of binding of FimH to the bladder cells, they do however not indicate complete inhibition. MIC values for the CD-conjugates 1-4 followed a similar trend as the inhibitory concentrations recorded in HIA.
The anti-adhesive capacities of the n-heptyl α-D-mannoside-derivatized cyclodextrins 1-4 were tested in vitro on the bladder cell line 5637, in a procedure analogous to as described in (Wellens, A. et al., PLoS ONE 3: e2040 (2008)). The ligands have been diluted 10-fold and this is also the resolution limit of these tests.

Data set [3] concerns type-1 piliated clinical E. coli isolate UTI89. Description: Haemagglutination inhibition assay (HIA), guinea pig erythrocytes. The conditions noted are these: read-out: Minimal inhibitory concentration (MIC) on haemagglutination. The data set is classed as cell-based, Escherichia coli. The protocol: Haemagglutination is observed as the red blood cells being held in suspension through the formation of a space-filling cross-linked network with the fimbriated bacteria.
The UIT89 clinical isolate was grown statically 37° C. for 48 hours in LB medium and analysed for haemagglutination of guinea pig red blood cells. Both bacteria and red blood cells (RBCs) were washed 3 times in ice-cold PBS (17 mM K/NaH2PO4, 150 mM NaCl). PBS was used for all dilutions. 96-well round-bottom microtiter plates were used for the dilutions. The titer for agglutination was determined in a 2-fold dilution series in PBS of the bacteria in a volume of 25 μL. Well 1 is a negative control without bacteria but 25 μL PBS. 25 μL PBS and 50 μL 5% RBCs were added to a final 100 μL volume. Upon 1 hour at 4° C., the titer was determined as the lowest concentration of bacteria that led to haemagglutination.
A bacterial concentration of twice the determined haemagglutination titer was kept constant in the haemagglutination inhibition assays. First, a 2-fold dilution series of the inhibitory compounds was performed in 25 μL PBS. Instead, in well 1 only 25 μL PBS was added as a negative control. 25 μL of the bacterial solution and 50 μl of 5% red blood cells were added to reach a final volume of 100 μL.

For a further data set, the system named is UTI89 E. coli. Description: Inhibition of haemagglutination (Example 19). The data set is classed as cell-based, Escherichia coli. The following applies: two-fold dilution from 1 mM. As for the experimental part: Interaction of E. coli FimH adhesins with the glycocalyx of guinea pig erythrocytes forms a cross-linked network into the wells. Glycoconjugates added in a two-fold dilution series prevents the agglutination reaction. The inhibition titer is defined as the lowest concentration of the glycoconjugate at which haemagglutination is still inhibited. UTI89 E. coli were grown statically overnight in LB at 37° C., washed three times in ice-cold phosphate-buffered saline and resolubilized. A two-fold dilution of glycoconjugates was prepared in 25 μL 20 mM HEPES pH 7.4 with 150 mM NaCl, starting from 1 mM as the highest concentration. The bacterial solution (25 μL) was added to the two-fold dilution series of the compound. Finally 50 μl of guinea pig red blood cells, washed in buffer and diluted to 5%, were added to a final 100 μL and left on ice for 30 min. before read-out. Due to serial dilutions, the maximal error is ±one well, or a factor two (FIG. 2).

The target in the next data set is T2, lectin domain of FimH (Escherichia coli, UniProt P08191).
T2 construct: The lectin domain of FimH was expressed as described previously and purified at pH 4.0; made in house
T2 sequence (P08191 22-179): as above
Nature of the data set: Surface plasmon resonance solution competition assay. The data set is classed as binding. The conditions noted are these: solution affinity, inhibition of FimH binding to immobilized mannoside, CM5 chip. As for the experimental part: The affinity of the compounds was first evaluated and then measured in a surface plasmon resonance solution competition assay. The lectin domain of FimH was expressed as described previously and purified at pH 4.0 in 50 mM HCOOH on a SPFF (sulfopropyl fast flow) ion exchange column (GE Healthcare). A CM5 sensor chip (Biacore, GE Healthcare) has been coated with a layer of amino-functionalized monovalent heptyl mannoside to 60 RU (response units) and the kinetics of FimH binding to the sensor chip has been determined. All data collection have been performed in HBS buffer complemented with 3 mM EDTA and 0.01% Tween20. Regeneration was done with a single 10 s injection of 100 mM NaOH in water.
The solution affinity provided by the Biacore software uses the equation (B−A−Kd)/2+(0.25*(A+B+Kd)^2−A*B)^0.5, with B presenting the uninhibited concentration of FimH, and A the variable compound concentration.

Data set [4] relates to AIEC LF82 strain adhesion to T84 intestinal epithelial cells. Description: Adhesion assay on T84 cells, cells incubated 1 h with mannoside prior infection (Example 21.1). In kind it is cell-based, Escherichia coli. The protocol:
E. coli strain LF82 was isolated from a chronic ileal lesion of a patient with Crohn's disease (CD). Bacteria were grown routinely in Luria-Bertani (LB) broth overnight at 37° C. Intestinal epithelial cells T84 derived from colonic adenocarcinoma were maintained in an atmosphere containing 5% CO2 at 37° C. in DMEM/F12 (50/50) medium supplemented with 10% (v/v) heat-inactivated fetal calf serum (FCS), 1% L-glutamine, 100 000 U·l^−1 penicillin, 100 mg·l^−1 streptomycin, 25 μg·l^−1 amphotericin B.
T84 cells were seeded in 48-well tissue culture plates with 1.5×10^5 cells per well and grown for 48 h. Cells were incubated 1 h prior infection with each mannoside at a final concentration of 100; 10; 1 or 0.1 μM in complete medium without antibiotics, containing heat inactivated fetal calf serum (FCS) and were next infected with AIEC LF82 strain at a multiplicity of infection (MOI) of 10 bacteria per cell. After a 3 h incubation period at 37° C., the monolayers were washed in phosphate-buffered saline (PBS; pH 7.2). The epithelial cells were then lysed with 1% Triton X-100 in deionized water. Samples were diluted and plated onto Luria Bertani agar plates to determine the number of cfu recovered from the lysed monolayers.
Results were expressed in percentage of residual adhesion, considering adhesion level of AIEC LF82 without mannoside treatment as 100%.

Data set [5] relates to AIEC strain LF82 adhesion to T84 intestinal epithelial cells. Nature of the data set: Adhesion assay on T84 cells with thiazolylaminomannosides (Example 22.3). The data set is classed as cell-based, Escherichia coli. The protocol: T84 Intestinal Epithelial cells (overexpressing the receptor CEACAM6) were beforehand incubated for 1 h with the synthetic thiazolylaminomannosides 6-20 (examples 3-17) at different concentrations. Each compound was tested four times at concentrations of 0.1, 1, 10 and 100 μM.
The cells were then infected in the presence of inhibitory compounds by the AIEC strain of reference LF82 for 3 hours at a multiplicity of infection of 10 bacteria to a cell. After 3 h of incubation, the monolayer was washed and the number of AIEC bacteria associated with cells was counted. The level of adhesion of AIEC LF82 strain in the presence of inhibitors (residual adhesion) was expressed relatively to the level of adherence in the absence of any treatment (considered 100%) (FIG. 10).

For data set [6], the system named is primary human peripheral venous blood monocyte-derived macrophages. Description: Macrophage-mediated phagocytosis of aged PMN cells. In kind it is cell-based. The conditions noted are these: 500 nM. The text has this: To estimate the influence of mannose-based inhibitors on possible inhibition of phagocytosis we used primary human peripheral venous blood monocyte-derived macrophages and estimated their ability to phagocyte autologous and allogenic human blood-derived PMN cells, as described by us previous (Bilyy, R. O. et al. (2012) J Biol Chem 287, 496-503).
Primary human PMN and MoMa from healthy volunteers were used. Monocytes were isolated from peripheral blood by LymphoPrep® gradient according to manufacture's recommendations for isolation of PBMC fraction. Plastic-attached cells of PBMC fraction were then cultured for 7 days in the presence of GM-CSF (100 U/ml) and autologous serum (added at days 1, 3 and 5) to generate MoMa. After 7 days of differentiation, the MoMa population was tested. They typically contain >95% CD11b+ cells, >90% CD14+ cells and >85% CD89+ cells. Phagocytosis was assessed by pre-incubation of PMN (freshly isolated or aged for 24 h) with mannose-based inhibitor for 30 min at 37° C. at Ringer buffer. Cells were thoroughly washed three times with Ringer solution and incubated with human MoMa for 2 hours. Uningested PMN were analyzed by flow cytometry (for this reason cells were pre-stained with CFSE (Rodel, F. et al. (2005) Strahlentherapie and Onkologie: Organ der Deutschen Rontgengesellschaft . . . [et al] 181, 456-462)) or in the hemocytometric chamber using Zeiss AxioImager A1 microscope. The percentage of prey cells that had been bound to or taken up by MoMa (% of phagocytosis) was calculated.

[7] abbreviates: excluding spiky heat signals (2).

≈ marks a conversion by molar mass, not a printed value. Read-outs that look alike come from different tables or passages of the source.

As to `OCC1OC(OCCCCCCCOCc2cn(CCOCCOCCOCc3cn(CC4OC5OC6C(CO)OC(OC7C(CO)OC(OC8C(CO)OC(OC9C(CO)OC(OC%10C(CO)OC(OC%11C(CO)OC(OC4C(O)C5O)C(O)C%11O)C(O)C%10O)C(O)C9O)C(O)C8O)C(O)C7O)C(O)C6O)nn3)nn2)C(O)C(O)C1O` (stereo not shown) [Compound 3], the “Inhibition efficiency at decreased concentration” value in [1] (0.1 mM) is on record as “important drop in the inhibition efficiency”. The “Reduction of the level of infection” value in data set [1] (instillation of 1 mM with UTI89) is recorded as 10 fold. Besides, the “Affinity of FimH for the ligand (in words)” value in data set [2] (ITC) was “micromolar range”. Also, the Kd in [2] (data processed to exclude spiky heat signals (2)) was found to be 1.95 µM; in data set [2] (data processed to include the whole binding event (1)), 4.57 µM. The “Molar ratio n meas” value came out at 0.57 in data set [2] (setting [7]) and 0.45 in data set [2] (whole binding event (1)). Also, the “ΔG°” value in [2] (setting [7]) was -32.2 kJ/mol; in data set [2] (whole binding event (1)) it was -30.1 kJ/mol. Besides, the “ΔH°” value in data set [2] (setting [7]) was -20.1 kJ/mol; in data set [2] (whole binding event (1)) it was -41.8 kJ/mol. Further, the entries for the “ΔS°” value in data set [2] (setting [7]) and in data set [2] (whole binding event (1)) were 9.9 cal/mol/deg and −9.6 cal/mol/deg, respectively. Besides, the “MIC, anti-adhesive potency on bladder cell line 5637” value with bladder cell line 5637 was greater than 400 µM. Besides, the results for the MIC in [3] (UTI89 1.2 10^9 CFU/ml), in [3] (UTI89 1.4 10^8 CFU/ml) and in data set [3] (UTI89 7 10^7 CFU/ml) were 200 µM (≈ 341 µg/mL), 50 µM (≈ 85.3 µg/mL) and 31 µM (≈ 52.9 µg/mL), respectively.

For the compound `COc1ccn([C@H]2OC(CO)[C@@H](O)C(O)C2O)c(=S)n1` (stereo partly drawn) [NM30, 1-(2,3,4,6-tetrahydroxy-α-D-mannopyranosyl)-4-methoxypyrimidine-2(1H)-(thi)one], the “Inhibitory potency in haemagglutination (FIG. 2)” value in the data set with UTI89 E. coli is listed as “non-effectiveness”. Binding at lectin domain of FimH was put at a Kd of 0.92 µM.

Turning to `Nc1ccn([C@H]2OC(CO)[C@@H](O)C(O)C2O)c(=S)n1` (stereo partly drawn) [NM34, 4-amino-1-(2,3,4,6-tetrahydroxy-α-D-mannopyranosyl)pyrimidine-2(1H)-(thi)one], the “Inhibitory potency in haemagglutination (FIG. 2)” value in the data set with UTI89 E. coli is “non-effectiveness”. This compound displayed a Kd at lectin domain of FimH of 2.37 µM.

In the case of `O=C[C@@H](O)[C@@H](O)[C@H](O)[C@H](O)CO` [mannose, reference compound], the “Concentration reaching around 75% of binding inhibition (25% line)” value in data set [4] was 50000 µM. The “Concentration necessary to achieve a similar percentage of residual adhesion (decrease greater than 95%)” value in data set [5] is 100 mM. The “Decrease of adherence to intestinal epithelial cells” value in data set [5] (100 μM) is on record as “about 25%”.

Turning to `CO[C@H]1O[C@H](CO)[C@@H](O)[C@H](O)[C@@H]1O` [αMM, α-D-methyl mannoside], the Phagocytosis rate result in data set [6] was “significantly decreased phagocytosis rate”.
